In ChEMBL document CHEMBL1201862, “PubChem BioAssay data set” (2004):
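Dose response: 5 concentrations. Exposure: 48 h. Format: 96-well plates. Endpoint: linear interpolation; highest concentration if not reached. GI50 is the concentration that inhibits growth by half.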 The source made the active and inactive calls. Rule as the data show it: active = GI50 up to about 1.1 µM and inactive = higher.

What was measured:
Assay in all cases: growth of human tumour cells (NCI), 48 h
CAKI-1 = tested on: CAKI-1
CCRF-CEM = tested on: CCRF-CEM
DLD-1 = tested on: DLD-1
HCC 2998 = tested on: HCC 2998
HCT-116 = tested on: HCT-116
HL-60 = tested on: HL-60
K562 = tested on: K562
LOX IMVI = tested on: LOX IMVI
MDA-MB-435 = tested on: MDA-MB-435
MDA-N = tested on: MDA-N
OVCAR-3 = tested on: OVCAR-3
OVCAR-4 = tested on: OVCAR-4
PC-3 = tested on: PC-3
RXF 393 = tested on: RXF 393
SF-539 = tested on: SF-539
SK-MEL-5 = tested on: SK-MEL-5
SR = tested on: SR
TK-10 = tested on: TK-10
UACC-62 = tested on: UACC-62
UO-31 = tested on: UO-31

Measured: GI50

CCCCCCCCCCCCCCCCSS(C)(=O)=O
inactive: CAKI-1 10.1 µM | CCRF-CEM 3.03 µM | DLD-1 11.6 µM | HCC 2998 > 53.6 µM | HCT-116 10.6 µM | HL-60 4.07 µM | K562 9.64 µM | LOX IMVI 3.73 µM | MDA-MB-435 > 100 µM | MDA-N 14.8 µM | OVCAR-3 10.9 µM | OVCAR-4 18.7 µM | PC-3 > 100 µM | RXF 393 5.43 µM | SF-539 17.9 µM | SK-MEL-5 32.8 µM | SR 4.65 µM | TK-10 24.1 µM | UACC-62 22.4 µM | UO-31 20.8 µM

CC1=C(/C=C/C(C)=C/C=C/C(C)=C/C(=O)O)C(C)(C)CCC1 [TRETINOIN]
inactive: CAKI-1 > 70.6 µM | CCRF-CEM 44.3 µM | DLD-1 > 100 µM | HCC 2998 51.6 µM | HCT-116 48.6 µM | HL-60 18 µM | K562 39.4 µM | LOX IMVI 31.9 µM | MDA-MB-435 > 58.5 µM | MDA-N 45.8 µM | OVCAR-3 46.6 µM | OVCAR-4 > 70 µM | PC-3 39.6 µM | RXF 393 > 68.1 µM | SF-539 48.6 µM | SK-MEL-5 47.8 µM | SR 47 µM | TK-10 71.8 µM | UACC-62 > 64.3 µM | UO-31 > 64.3 µM
